Assay results: paper PMC8072719, “Synthesis and Antiproliferative Activity of Triazoles Based on 2-Azabicycloalkanes” (Materials, 2021)
Where two headings read alike, the source gives them in different places.

Experiments:
Hs294T = assay: Growth inhibition assay (SRB assay), melanoma cell line Hs294T; type: cell-based, human; details: Homo sapiens, Hs 294T, 72 h, mean ± SD
Experimental: (§1) Three human cancer cell lines were used to evaluate the antiproliferative activity of the obtained compounds: melanoma cell line Hs294T, pancreatic tumor cell line MIA PaCa-2, and lung tumor cell line NCI-H1581. The normal mouse fibroblasts cell line (BALB/3T3 clone A31) was selected as reference. All these lines were purchased from the ATCC (American Type Culture Collection, Rockville, MD, USA). NCI-H1581 cells were grown in RPMI 1640 with GlutaMax medium (Gibco, Thermo Fisher Scientific, Leicestershire, UK) with 5% fetal bovine serum (FBS; HyClone, GE Healthcare, Logan, UT, USA). Hs294T and BALB/3T3 cells were grown in Dulbecco’s Modified Eagle Medium (DMEM; Gibco, Thermo Fisher Scientific, Leicestershire, UK) supplemented with 2 mM L-glutamine and 10% FBS (HyClone, GE Healthcare, Logan, UT, USA). MIA PaCa-2 cells were grown in DMEM (Gibco, Thermo Fisher Scientific, Leicestershire, UK) supplemented with 2 mM L-glutamine, 2.5% Horse Serum (Gibco, Thermo Fisher Scientific, Leicestershire, UK), and 10% FBS (HyClone, GE Healthcare, Logan, UT, USA). All culture media were supplemented with antibiotics: 100 U/mL penicillin (Polfa Tarchomin SA, Warsaw, Poland) and 100 µg/mL streptomycin (Sigma-Aldrich Chemie GmbH, Steinheim, Germany); cells were grown at 37 °C in a humid atmosphere with 5% CO2.
(§2) Twenty-four hours prior to the addition of the tested compounds, 2000 cells per well of Balb/3T3, MIA PaCa-2, and Hs294T cell lines and 2500 cells of NCI-H1581 cell line were seeded in 384-well plates (Greiner Bio-One, Kremsmünster, Austria) in an appropriate medium. The studied compounds were added to the cells at 8 different concentrations in a series of dilutions from 100 to 0.00001 µg/mL for 72 h. Cisplatin was applied as a reference compound (Teva Pharmaceuticals, Warsaw, Poland). DMSO (Sigma-Aldrich Chemie GmbH, Steinheim, Germany) was used as solvent control. The DMSO concentrations corresponded to the solvent concentrations in the tested compound solutions. Then, 30 µL per well of ice-cold 50% TCA (trichloroacetic acid, Avantor, Gliwice, Poland) was added to the cells. After one hour of incubation at room temperature (RT) cells were washed five times with water and stained with 0.4% SRB (sulforhodamine B, Sigma-Aldrich Chemie GmbH, Steinheim, Germany). Twenty-five microliters per well of 0.4% solution of SRB in 1% acetic acid (Avantor, Gliwice, Poland) was applied. After 0.5 h of incubation at RT, the unbound dye was washed out with 1% acetic acid. The bound dye in each well was dissolved in 70 µl of 10 mM TRIS (Tris base, Sigma-Aldrich, Chemie GmbH, Steinheim, Germany). A microplate reader (BioTek Synergy H4, Swindon, UK) with Gen5 software was used to read the absorbance at 540 nm. The results are presented as mean IC50 values (concentration of the compound that inhibits cell proliferation by 50%) ± standard deviation. Half-maximal inhibitory concentration (IC50) values were calculated using the Prolab-3 system based on Cheburator 0.4 [22]. Each experiment was performed in triplicate, and three independent repetitions were made for each experiment. Raw data and IC50 values were placed in the supplementary materials.

MIA PaCa-2 = assay: Growth inhibition assay (SRB assay), pancreatic tumor cell line MIA PaCa-2; type: cell-based, human; details: Homo sapiens, mean ± SD
Experimental: as §1, §2

NCI-H1581 = assay: Growth inhibition assay (SRB assay), lung tumor cell line NCI-H1581; type: cell-based, human; details: for IC50: 72 h, SRB, mean ± SD; for SI (Selectivity Index): SI = IC50 for normal cell line BALB/3T3 / IC50 for NCI-H1581
Experimental: as §1, §2

BALB/3T3 clone A31 = assay: Growth inhibition assay (SRB assay), normal fibroblasts BALB/3T3 clone A31; type: cell-based, mouse; details: mean ± SD
Experimental: as §1, §2

[1] = supplement, read-out: IC50 Hs294T (raw data)
[2] = MIA PaCa-2, 72 h, read-out: IC50 MIA PaCa-2
[3] = MIA PaCa-2, supplement, 72 h, read-out: IC50 MIA PaCa-2 (raw data)
[4] = Homo sapiens, NCI-H1581, 72 h, read-out: IC50 NCI-H1581
[5] = Homo sapiens, NCI-H1581, 72 h, supplement, read-out: IC50 NCI-H1581 (raw data)
[6] = Mus musculus, BALB/3T3 clone A31, 72 h, normal cell line, read-out: IC50 BALB3T3
[7] = Mus musculus, BALB/3T3 clone A31, 72 h, supplement, read-out: IC50 BALB3T3 (raw data)
[8] = supplement, read-out: IC50 Hs294T (non-rounded data)
[9] = MIA PaCa-2, supplement, 72 h, read-out: IC50 MIA PaCa-2 (non-rounded data)
[10] = Homo sapiens, NCI-H1581, 72 h, supplement, read-out: IC50 NCI-H1581 (non-rounded data)
[11] = Mus musculus, BALB/3T3 clone A31, 72 h, supplement, read-out: IC50 BALB3T3 (non-rounded data)

| Compound | IC50 (Hs294T; read-out: IC50 Hs294T) [µM] | IC50 (Hs294T; [1]) | IC50 (MIA PaCa-2; [2]) [µM] | IC50 (MIA PaCa-2; [3]) | IC50 (NCI-H1581; [4]) [µM] | IC50 (NCI-H1581; [5]) | SI (Selectivity Index) (NCI-H1581) | IC50 (BALB/3T3 clone A31; [6]) [µM] | IC50 (BALB/3T3 clone A31; [7]) | IC50 (NCI-H1581; read-out: IC50 NCI-H1581) [µM] | IC50 (BALB/3T3 clone A31; 72 h, normal cell line, read-out: IC50 BALB3T3) [µM] | IC50 (Hs294T; [8]) [µM] | IC50 (MIA PaCa-2; [9]) [µM] | IC50 (NCI-H1581; [10]) [µM] | IC50 (BALB/3T3 clone A31; [11]) [µM] |
| --- | --- | --- | --- | --- | --- | --- | --- | --- | --- | --- | --- | --- | --- | --- | --- |
| C[C@@H](c1ccccc1)N1C[C@@H](n2cc(CN)nn2)[C@@H]2CC[C@H]1C2 [Compound 3, (1-((1S,4S,5R)-2-((S)-1-phenylethyl)-2-azabicyclo[3.2.1]octan-4-yl)-1H-1,2,3-triazol-4-yl)methanamine] | 88.5 ± 9.41 | 27.6 ± 2.93 µg/mL | 99.9 ± 4.46 | 31.1 ± 1.39 µg/mL | 11.3 ± 1.25 | 3.51 ± 0.39 µg/mL | 8 | 94.4 ± 1.89 | 29.4 ± 0.59 µg/mL | – | – | – | – | – | – |
| CC(c1ccccc1)N1CC(n2cc(C3C4CCC(C4)N3C(C)c3ccccc3)nn2)C2CCC1C2 (stereo not drawn) [Compound 20] | 57 ± 13.6 | 27.5 ± 6.57 µg/mL | 63 ± 7.29 | 30.4 ± 3.51 µg/mL | 6.3 | 3.01 ± 0.66 µg/mL | 6 | 39.4 ± 4.86 | 19 ± 2.34 µg/mL | 6.25 ± 1.37 | – | – | – | – | – |
| C[C@@H](c1ccccc1)N1C[C@H](n2cc(CO)nn2)[C@@H]2CC[C@H]1C2 [Compound 2, (1-((1S,4R,5R)-2-((S)-1-phenylethyl)-2-azabicyclo[3.2.1]octan-4-yl)-1H-1,2,3-triazol-4-yl)methanol] | > 100 | 46.1 ± 2.17 µg/mL | > 100 | 71.4 ± 11.8 µg/mL | 72.3 ± 34 | 22.6 ± 10.6 µg/mL | – | > 100 | 56.1 ± 8.24 µg/mL | – | – | – | – | – | – |
| C[C@@H](c1ccccc1)N1C[C@H](n2cc(CN(Cc3cn([C@H]4CN([C@@H](C)c5ccccc5)[C@H]5CC[C@@H]4C5)nn3)Cc3cn([C@H]4CN([C@@H](C)c5ccccc5)[C@H]5CC[C@@H]4C5)nn3)nn2)[C@@H]2CC[C@H]1C2 [Compound 19, N,N,N-tris((1-((1S,4R,5R)-2-((S)-1-phenylethyl)-2-azabicyclo[3.2.1]octan-4-yl)-1H-1,2,3-triazol-4-yl)methyl) amine] | 29.1 ± 1.36 | 26.2 ± 1.22 µg/mL | 31.8 ± 2.31 | 28.7 ± 2.08 µg/mL | 3.27 ± 0.42 | 2.94 ± 0.38 µg/mL | – | 27.7 ± 3.24 | 24.9 ± 2.92 µg/mL | – | – | – | – | – | – |
| C[C@@H](c1ccccc1)N1C[C@H](n2cc(COCc3cn([C@H]4CN([C@@H](C)c5ccccc5)[C@H]5CC[C@@H]4C5)nn3)nn2)[C@@H]2CC[C@H]1C2 [Compound 13, (1S,1′S,4R,4′R,5R,5′R)-4,4′-(4,4′-(oxybis(methylene))bis(1H-1,2,3-triazole-4,1-diyl))bis(2-((S)-1-phenylethyl)-2-azabicyclo[3.2.1]octane)] | 13.7 ± 2.31 | 8.28 ± 1.4 µg/mL | 44.9 ± 3.69 | 27.2 ± 2.24 µg/mL | 4.88 ± 0.41 | 2.96 ± 0.25 µg/mL | 9 | 46.1 | 27.9 ± 6.85 µg/mL | – | 46.1 ± 11.3 | – | – | – | – |
| C[C@@H](c1ccccc1)N1C[C@@H](n2cc(CCCc3cn([C@@H]4CN([C@@H](C)c5ccccc5)[C@H]5CC[C@@H]4C5)nn3)nn2)[C@@H]2CC[C@H]1C2 [Compound 10, 1,3-Bis-(1-((1S,4S,5R)-2-((S)-1-phenylethyl)-2-azabicyclo[3.2.1]octan-4-yl)-1H-1,2,3-triazol-4-yl) propane] | 10.3 ± 3.39 | 6.26 ± 2.05 µg/mL | 40.2 ± 1.6 | 24.3 ± 0.97 µg/mL | 4.2 ± 0.36 | 2.54 ± 0.22 µg/mL | 3 | 11.8 ± 5.03 | 7.17 ± 3.04 µg/mL | – | – | – | – | – | – |
| C[C@@H](c1ccccc1)N1C[C@@H](n2cc(-c3cccc(N)c3)nn2)[C@@H]2CC[C@H]1C2 [Compound 6, 3-(1-((1S,4S,5R)-2-((S)-1-phenylethyl)-2-azabicyclo[3.2.1]octan-4-yl)-1H-1,2,3-triazol-4-yl)aniline] | 74.5 ± 14.9 | 27.8 ± 5.58 µg/mL | 84.4 ± 1.04 | 31.5 ± 0.39 µg/mL | 30.8 ± 3.51 | 11.5 ± 1.31 µg/mL | 2.5 | 77.1 ± 1.1 | 28.8 ± 0.41 µg/mL | – | – | – | – | – | – |
| C[C@@H](c1ccccc1)N1C[C@@H](n2cc(COCc3cn([C@@H]4CN([C@@H](C)c5ccccc5)[C@H]5CC[C@@H]4C5)nn3)nn2)[C@@H]2CC[C@H]1C2 [Compound 12, (1S,1′S,4S,4′S,5R,5′R)-4,4′-(4,4′-(oxybis(methylene))bis(1H-1,2,3-triazole-4,1-diyl))bis(2-((S)-1-phenylethyl)-2-azabicyclo[3.2.1]octane)] | 32.4 ± 7.83 | 19.7 ± 4.75 µg/mL | 51.5 ± 1.6 | 31.2 ± 0.97 µg/mL | 6 ± 0.86 | 3.64 ± 0.52 µg/mL | 7 | 44.4 ± 7.5 | 26.9 ± 4.55 µg/mL | – | – | – | – | – | – |
| C[C@@H](c1ccccc1)N1C[C@@H](n2cc(CO)nn2)[C@@H]2CC[C@H]1C2 [Compound 1, (1-((1S,4S,5R)-2-((S)-1-phenylethyl)-2-azabicyclo[3.2.1]octan-4-yl)-1H-1,2,3-triazol-4-yl)methanol] | > 100 | > 100 µM | > 100 | > 100 µM | > 100 | > 100 µM | – | > 100 | > 100 µM | – | – | > 100 | > 100 | > 100 | > 100 |
| C[C@@H](c1ccccc1)N1C[C@@H](n2cc(CN(Cc3cn([C@@H]4CN([C@@H](C)c5ccccc5)[C@H]5CC[C@@H]4C5)nn3)Cc3cn([C@@H]4CN([C@@H](C)c5ccccc5)[C@H]5CC[C@@H]4C5)nn3)nn2)[C@@H]2CC[C@H]1C2 [Compound 18, N,N,N-tri((1-((1S,4S,5R)-2-((S)-1-phenylethyl)-2-azabicyclo[3.2.1]octan-4-yl)-1H-1,2,3-triazol-4-yl)methyl) amine] | 20.8 ± 5.02 | 18.8 ± 4.52 µg/mL | 25.7 ± 0.26 | 23.11 ± 0.23 µg/mL | 2.4 | 2.2 ± 0.06 µg/mL | – | 23.1 ± 2.72 | 20.8 ± 2.45 µg/mL | 2.44 ± 0.07 | – | – | – | – | – |
| C[C@@H](c1ccccc1)N1C[C@H](n2cc(-c3cccc(-c4cn([C@H]5CN([C@@H](C)c6ccccc6)[C@H]6CC[C@@H]5C6)nn4)c3)nn2)[C@@H]2CC[C@H]1C2 [Compound 17, 1,3-Bis-(1-((1S,4R,5R)-2-((S)-1-phenylethyl)-2-azabicyclo[3.2.1]octan-4-yl)-1H-1,2,3-triazol-4-yl) benzene] | > 100 | > 100 µM | > 100 | > 100 µM | > 100 | > 100 µM | – | > 100 | > 100 µM | – | – | > 100 | > 100 | > 100 | > 100 |
